Assay results published in the METLIN SMRT retention time set (Domingo-Almenara et al. 2019).

Test: gradient 5% acetonitrile 3 min, to 50% in 2 min, to 85% in 15 min, held 3 min, 100 µL/min
Settings: column: Zorbax Extend-C18 2.1 x 50 mm; eluents: water / acetonitrile, 0.1% formic acid
Outline: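 Retention times come from adduct peaks that were picked computationally and then checked by hand. The standards, pure and pooled in mixtures of ~100 molecules, were run on a Zorbax Extend-C18 column (2.1 × 50 mm, 1.8 μm) at 100 μL/min with water and acetonitrile, each with 0.1% formic acid. Detection was by quadrupole time-of-flight mass spectrometry in positive and negative ionization mode, with a dead volume of 40 μL and a dwell volume of 900 μL.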

| SMILES | RP-LC retention time [s] |
| --- | --- |
| O=C(c1cccs1)N(Cc1ccco1)c1nc2c(F)cc(F)cc2s1 | 1160 |
| O=S(=O)(c1cccc(-c2nnc(-c3ccc(Cl)cc3)o2)c1)N1CCOCC1 | 995 |
| O=C(NCCc1cn2c(n1)SCC2)C(=O)Nc1ccc(F)cc1 | 542 |
| Cc1nn(-c2ccccc2)c(C)c1S(=O)(=O)N1CCC(C(=O)N2CCc3ccccc3C2)CC1 | 986 |
| CCCOc1nc2ccccc2nc1N1CCCC(C(=O)NCC2CCCO2)C1 (stereo unspecified) | 1010 |
| CSc1ccc(NC(=O)N2CCC(c3nc(C(=O)N4CCCCC4)c(C)o3)CC2)cc1 | 840 |
| CCn1ccc2cc(S(=O)(=O)N3CCCC(C(=O)NCCN4CCCCC4)C3)ccc21 (stereo unspecified) | 668 |
| O=C(NCCn1cccn1)c1nn(CCOc2ccccc2)c2c1CNCC2 | 600 |
| Cc1cc2ccccc2n1-c1ccc(C(N)=O)s1 | 842 |
| CC(C)Cc1nc2nccc(-c3ccccc3)n2n1 | 877 |
| CCC(=O)N(C1CCOCC1)C1CCN(S(=O)(=O)c2cc(F)ccc2C)CC1 | 864 |
| Cc1ccc(NS(=O)(=O)c2c(C)c(-c3nnc(C4CCC4)o3)n(C)c2C)cc1 | 918 |
| O=S(=O)(c1cccc(C(F)(F)F)c1)N1CCOCC1 | 794 |
| CCc1ccc(NC(=O)N2CCc3c(c(-c4nc(C5CC5)no4)nn3C)C2)cc1 | 934 |
| C=CCOc1ccc(S(C)(=O)=O)cc1 | 814 |
| CCc1cccc(NC(=O)N2C[C@@H](F)C[C@H]2C(=O)N2CCc3ccccc3C2)c1 | 887 |
| COc1nccnc1NC1CCN(C(=O)c2ccnn2C)CC1 | 608 |
| O=C(NCc1ccco1)c1ccc2c(c1)CC(=O)N2Cc1ccc(F)cc1 | 794 |
| O=c1cc(-c2cc(O)c(O)c([C@@H]3O[C@H](CO)[C@@H](O)[C@H](O)[C@H]3O)c2)oc2cc(O[C@@H]3O[C@H](CO)[C@@H](O)[C@H](O)[C@H]3O)cc(O)c12 | 648 |
| O=C(O)c1nn(Cc2ccc(Cl)cc2Cl)c2ccccc12 | 1050 |

| SMILES | RP-LC retention time [s] |
| --- | --- |
| CCCN1CCN(CCCNC(=O)CSc2nc3ccccc3n(C)c2=O)CC1 | 564 |
| COc1ccc2c(c1)C1(CCN(C(=O)Cc3ccccc3Cl)C1)C(=O)N2C (stereo unspecified) | 848 |
| O=C(Nc1cnc(N2CCCC2)nc1)c1ccc(Br)o1 | 732 |
| O=C(NCCc1csc(C2CCCN(C(=O)C3CC3)C2)n1)C1CCC1 (stereo unspecified) | 682 |
| Cc1cc(NC(=O)C2CCN(C(=O)c3ncn4c3COC(c3ccc(F)cc3)C4)CC2)ccc1F (stereo unspecified) | 839 |
| COCCN1C(=O)Cc2ccccc2C1C(=O)N1CCN(c2ccccc2Cl)CC1 (stereo unspecified) | 904 |
| CCc1ccccc1S(=O)(=O)N(C)CC1CCOC1 (stereo unspecified) | 850 |
| CCOC(=O)N1CCC(NC(=O)C(=O)NCc2cccs2)CC1 | 692 |
| CCc1ccc(C(=O)N2CCN(c3nc(CN4CCCCCC4)cs3)CC2)cc1 | 708 |
| Cc1scc2nc(C(=O)N3CCN(C4CCCC4)CC3)nc(N3CCCC3)c12 | 550 |
| Clc1cc(I)cc(Cl)c1NC1=NCCN1 | 655 |
| CN(C)c1cccc(-c2nc(-c3ccc(CNC(=O)C4CC4)s3)no2)c1 | 680 |
| O=C(N1CCC(c2nc(C3CCOCC3)no2)CC1)C1(c2ccccc2)CC1 | 817 |
| COCCNC(=O)c1csc(N2CCN(c3ccc(Cl)cc3)CC2)n1 | 972 |
| Cc1ccccc1CNC(=O)C1c2ccccc2CC(=O)N1C (stereo unspecified) | 755 |
| O=C(NC1CCCC1)C1c2ccccc2C(=O)N1Cc1ccc(F)cc1 (stereo unspecified) | 862 |
| Cc1ccc(S(=O)(=O)NCC2CN(CC3CC3)CC23CCCCC3)c(C)c1 (stereo unspecified) | 767 |
| Cc1ccccc1NS(=O)(=O)c1cc2c(s1)CCN(C(=O)C1CCC1)C2 | 832 |
| CC(C)c1ccc(NC(=O)Cn2cccc2-c2nnc(C3CC3)o2)cc1 | 961 |
| O=C1N(C2CCN(Cc3ccccn3)CC2)C(c2ccncc2)C12CCCCC2 (stereo unspecified) | 556 |

| SMILES | RP-LC retention time [s] |
| --- | --- |
| CCCSc1nnc(NC(=O)CCc2ccc(C)o2)s1 | 892 |
| Clc1ccccc1-c1nc(-c2ccncc2)no1 | 1040 |
| CCOc1ccc(CN2CCC3(CCC3O)CC2)cc1OCC (stereo unspecified) | 598 |
| O=S(=O)(NCCc1c[nH]c2ncccc12)c1ccc(Br)s1 | 673 |
| CCOc1ccc(S(=O)(=O)N2CCC(C(=O)NCc3csc(-c4ccccc4)n3)CC2)cc1 | 978 |
| Cc1nnc2ccc(N3CCCC3)nn12 | 726 |
| Cc1csc(NC(=O)C2CC(=O)N(c3n[nH]c4ccccc34)C2)n1 (stereo unspecified) | 665 |
| CCCc1cc(N2CCN(C(=O)COc3ccccc3)CC2)nc2nnc(C)n12 | 634 |
| O=C(Nc1nnc(SCc2ccccn2)s1)C1CC(=O)N(c2ccc(F)cc2)C1 (stereo unspecified) | 617 |
| CCS(=O)(=O)N1CC(n2cc(C(=O)NCC3CC3)nn2)C1 | 664 |
| CC1CCCN(C(=O)C(=O)NCc2n[nH]c(=O)c3ccccc23)C1 (stereo unspecified) | 644 |
| COCC(=O)NC(Cc1ccccc1)c1nnc(N2CCSCC2)o1 (stereo unspecified) | 721 |
| O=C(c1ccc(F)cc1)N1CCN(c2nnc3ccccn23)CC1 | 613 |
| O=C(CC1CCN(S(=O)(=O)c2ccccc2)CC1)N1CCN(c2ccccn2)CC1 | 625 |
| COC1CN(c2cccc(F)c2)C12CCN(Cc1ccc(C)o1)CC2 (stereo unspecified) | 745 |
| Cc1sc(NC(=O)C2CCCO2)nc1-c1ccc2c(c1)NC(=O)CO2 (stereo unspecified) | 732 |
| O=C(c1cc(-c2ccncc2)n[nH]1)N1CCC(C(=O)N2CCc3ccccc32)CC1 | 614 |
| CN(C)C[C@@H]1CN(Cc2ccccc2)C[C@H]1NS(=O)(=O)c1ccc(C#N)cc1 | 562 |
| O=C(NC1CCSC1=O)c1ccccc1 (stereo unspecified) | 638 |
| COC(=O)c1c(C)[nH]c(C(=O)N2CCC(CC(=O)NCc3cccc(Br)c3)CC2)c1C | 800 |

Other lines, results leading:

| RP-LC retention time [s] | SMILES |
| --- | --- |
| 1250 | Cc1cccc(-c2nc(-c3ccc4c(c3)oc(=O)n4C(C)C)no2)c1 |
| 1080 | CC(C)OC(=O)Cn1nc(-c2nc(-c3ccc(Cl)cc3)no2)ccc1=O |
| 958 | Cc1ccc(-n2ccc(=O)c(-c3nc(-c4ccccc4Cl)no3)n2)cc1 |
| 989 | Cc1cc(C)cc(NS(=O)(=O)c2ccc(-c3c(C)noc3C)cc2)c1 |
| 1110 | COc1cccc(/C=C/c2nc(-c3ccc4oc(C)nc4c3)no2)c1 |
| 1100 | CCn1c(=O)oc2cc(-c3noc(-c4cc(F)ccc4F)n3)ccc21 |
| 808 | Cc1cccc(NC(=O)C2(C)Oc3cccnc3N(C)C2=O)c1C (stereo unspecified) |
| 673 | COC(=O)c1cnc2nc(C)ccc2c1Nc1cccc(F)c1 |
| 985 | COc1ccc(-c2nnc(-c3nc(NCc4ccc(C)o4)c4ccccc4n3)o2)cc1 |
| 917 | O=C(CSc1nnc(COc2ccccc2Cl)o1)Nc1nc(-c2ccccc2)cs1 |
| 797 | COc1ccc(OC)c(NC(=O)CSC2CCc3ccccc3NC2=O)c1 (stereo unspecified) |
| 946 | Cn1cc(-c2nc(C(=O)Nc3cccc(C#N)c3)cs2)c2cccnc21 |
| 643 | COc1ccc(-c2cn3cccnc3n2)cc1NC(=O)c1cc(OC)c(OC)c(OC)c1 |
| 851 | COc1ccc(C(=O)N2CCC(COc3ccc(C(=O)NC(C)C)cc3)CC2)c(C)c1 |
| 741 | Cc1ccccc1Cn1cc(-c2ccncc2)cc1C(=O)NCc1cccs1 |
| 762 | COc1ccc(NC(=O)CN2CCc3[nH]c4c(C)c(Cl)ccc4c(=O)c3C2)cc1Cl |

| RP-LC retention time [s] | SMILES |
| --- | --- |
| 787 | Cc1nc2cc(N3CC(C(=O)Nc4ccc(Cl)cc4F)CC3=O)ccc2o1 (stereo unspecified) |
| 640 | COc1cc(OC)c(NC(=O)N(C)Cc2nc3cc(C(=O)N4CCCC4)ccc3n2C)cc1Cl |
| 760 | COc1cccc(-c2cc(C(N)=O)c3ccccc3n2)c1 |
| 1000 | CCOc1ccccc1OCc1nn2c(COc3ccc(F)cc3)nnc2s1 |
| 1020 | COc1ccc(-c2noc(C3CC(=O)N(c4ccc(C)c(Cl)c4)C3)n2)cc1OC (stereo unspecified) |
| 943 | COc1ccc(-c2nc3c(s2)CN(C(=O)Nc2ccccc2OC)CC3)cc1 |
| 660 | COC(=O)c1ccc2c(=O)n(-c3ccc(F)cc3)c(N3CCN(c4ccccn4)CC3)nc2c1 |
| 1160 | COc1cc(OC)cc(-c2nc(-c3ccc4nnn(C(C)C)c4c3)no2)c1 |
| 663 | C#Cc1cccc(Nc2ncnc3cc(OCCOC)c(OCCO)cc23)c1 |
| 1070 | Cc1cc(C)c(S(=O)(=O)N2CCC(C(=O)NCCc3csc(-c4ccccc4)n3)CC2)cc1C |
| 1050 | Cc1ccc(CNS(=O)(=O)c2cn(CC(C)C)c3ncccc23)cc1 |
| 990 | Cc1nc(-c2ccc(N3CCN(C(=O)c4cc(Cl)ccc4F)CC3)nc2)sc1C |
| 805 | O=C(NCCc1c[nH]c2ccc(Cl)cc12)c1ccc(F)cc1-n1cnnn1 |
| 992 | COC(=O)c1cc2c(=O)n(-c3ccc(Cl)c(C(F)(F)F)c3)ccc2nc1C |
| 971 | COC(=O)c1cccc(C(=O)Nc2ccc(Cl)cc2C)n1 |
